The source of these data is patent US8809384B2, “Azaspirodecanone compounds” (Hoffmann-La Roche Inc., priority 2011, dated 2014).

The assay addresses T1, human HSL (Homo sapiens, UniProt Q05469).
T1 construct: generate a full length human HSL ORF with a 3′-His6 tag; made in house; host or cells: High 5 insect cells (baculovirus, pFast-BAC)
T1 sequence (Q05469 1-1076): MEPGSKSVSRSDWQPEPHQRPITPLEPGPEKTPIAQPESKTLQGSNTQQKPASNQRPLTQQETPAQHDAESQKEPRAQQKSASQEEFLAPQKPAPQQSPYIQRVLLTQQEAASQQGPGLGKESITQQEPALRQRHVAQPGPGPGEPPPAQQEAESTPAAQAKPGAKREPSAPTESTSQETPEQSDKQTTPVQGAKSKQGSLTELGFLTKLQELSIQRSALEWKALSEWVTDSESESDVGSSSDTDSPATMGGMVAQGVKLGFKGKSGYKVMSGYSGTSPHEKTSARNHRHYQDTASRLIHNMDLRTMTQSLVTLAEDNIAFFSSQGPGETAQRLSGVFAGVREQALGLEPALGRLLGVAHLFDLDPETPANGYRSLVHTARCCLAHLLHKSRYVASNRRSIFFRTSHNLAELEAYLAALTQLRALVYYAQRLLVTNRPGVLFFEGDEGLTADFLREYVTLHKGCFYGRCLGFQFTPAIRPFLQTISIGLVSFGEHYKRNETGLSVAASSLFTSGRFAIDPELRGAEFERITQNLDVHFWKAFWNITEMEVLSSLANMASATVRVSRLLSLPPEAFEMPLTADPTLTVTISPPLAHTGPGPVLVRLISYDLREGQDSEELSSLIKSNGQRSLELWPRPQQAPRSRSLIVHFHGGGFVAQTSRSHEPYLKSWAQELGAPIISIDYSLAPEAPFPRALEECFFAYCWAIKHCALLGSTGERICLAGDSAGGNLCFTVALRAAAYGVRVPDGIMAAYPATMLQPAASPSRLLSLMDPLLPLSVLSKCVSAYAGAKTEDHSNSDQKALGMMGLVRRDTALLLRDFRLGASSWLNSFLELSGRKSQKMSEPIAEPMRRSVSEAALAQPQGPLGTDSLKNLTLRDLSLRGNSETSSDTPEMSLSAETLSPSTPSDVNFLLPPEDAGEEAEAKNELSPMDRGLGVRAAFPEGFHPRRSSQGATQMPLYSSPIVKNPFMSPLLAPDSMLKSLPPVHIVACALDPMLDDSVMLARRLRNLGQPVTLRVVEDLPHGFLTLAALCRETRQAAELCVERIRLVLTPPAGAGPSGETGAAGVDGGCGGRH
Briefly: Human Hormone-Sensitive Lipase (HSL) enzyme inhibition assay (colorimetric, DMPT substrate). Type of assay: biochemical. The settings on record: human full length HSL-His6, 2,3-dimercapto-1-propanol tributyrate substrate, 37° C., 20 minutes; read-out: HSL hum IC50. On the procedure:
Production of Human full length Hormone Sensitive Lipase-His^6: • 1) Cloning: cDNA was prepared from commercial human brain polyA+ RNA and used as a template in overlapping PCR to generate a full length human HSL ORF with a 3′-His6 tag. This full length insert was cloned into the pFast-BAC vector and the DNA-sequence of several single clones was verified. DNA from a correct full length clone with the 3′His6 tag was used to transform the E. coli strain DH10BAC. Resulting bacmid DNA was used to generate a titered baculovirus stock for protein generation. The sequence of the encoded HSL conforms to Swissprot entry Q05469, with the additional C-terminal His6-tag. • 2) Protein purification: Culture: 5.5 L, High 5 cells expressing human full length HSL-His^6, 48 hr., containing 25 μM E-64. Cell count: […], 90% viable. Cells were thawed. On ice, cells were suspended in Base Buffer containing 10% glycerol, 25 mM Tris-Cl, 300 mM NaCl, 10 mM imidazole, 10 mM 2-mercaptoethanol, 2 μg pepstatin/ml, 2 μg leupeptin/ml, 2 μg antipain/ml, pH 8.0 at 4° C. in a final volume of 475 ml with 3.75×10^7 cells/ml. […] was done at 3×30 sec., Lubrol PX was added to 0.2% final concentration followed by stirring for 15 min at 4° C. and centrifugation at 25 k×g, 60 min, 4° C. Soluble proteins were mixed with 60 ml of pre-washed and equilibrated Ni-NTA Agarose (Qiagen 30210) followed by tumbling end-over-end, 45 min., 4° C., centrifugation 1000 rpm 5 min and letting resin settle […]. Supernatant was removed, the resin washed in the centrifuge vessel using 5 volumes of Base Buffer containing 0.2% Lubrol PX. Centrifugation was done again, then the supernatant discarded. The resin was poured onto a 0.8 μm membrane in a disposable filter unit (Nalge 450-0080), and washed with 5 volumes of Base Buffer containing 0.2% Lubrol PX. It was then washed with 30 volumes of Base Buffer containing 60 mM imidazole pH 7.5 at 4° C. The protein was eluated with 5 volumes of 25 mM Tris-Cl, 300 mM NaCl, 200 mM imidazole, 10 mM 2-mercaptoethanol, pH 7.5 at 4° C. by tumbling resin with buffer end-over-end, 30 min., 4° C. The resin was captured on a 0.2 μm membrane disposable filter unit (Millipore SCGP U02 RE) and the eluate collected in the reservoir. The eluate was concentrated using a 30 k MWCO centrifugal filter device (Sartorius Vivascience Vivacell 100, VC1022), to 20 ml. It was then dialyzed overnight at 4° C., two times against 2 L of 10% glycerol, 25 mM Tris-Cl, 300 mM NaCl, 0.2 mM EDTA, 0.2 mM DTT, pH 7.5 at 4° C. The protein was filtered using a 0.22 μm disposable filter unit (Millipore SCGP00525). The protein concentration was calculated from absorbance at 280 nm, using 280=0.67 cm^−1 mg-1. Yield was 235 mg, total. The protein was stored at −80° C.
Human Hormone-Sensitive Lipase (HSL) Enzyme Inhibition Assay: • HSL enzyme activity was measured by a colorimetric assay using 2,3-dimercapto-1-propanol tributyrate (Aldrich, St. Louis, Mo.) as a substrate. Typically, 1.5 mM 2,3-dimercapto-1-propanol tributyrate (DMPT) in 100 mM MOPS, pH 7.2, 0.2 mg/ml fatty acid-free BSA was prepared by sonication at 4° C. to homogenous suspension. Test compounds (2 mM stock in DMSO) were diluted 3 fold in series in DMSO. Compound solutions were diluted 24 fold in 1.5 mM DMPT containing solution and 18 μl per well was added to 384-well microplates (Corning Costar). Twelve microliters per well of human HSL (15 μg/ml) was added and the reaction mixture was incubated at 37° C. for 20 minutes. Six microliters of 12 mM dithio-bis-(2-nitrobenzoic acid) (DTNB) in DMSO plus 1.2% SDS and 0.6% Triton X-100 were added and the mixture was incubated at room temperature for 15 minutes. Product production was monitored by reading absorbance at 405 nm on an Envision Reader (PerkinElmer Life and Analytical Sciences, Shelton, Conn.).

Each structure is given as a SMILES string.

In the case of `O=C1OCC2(CC2)N1C[C@]1(O)CC[C@]2(CCN(c3ccc(OCC(F)(F)F)cc3)C2=O)CC1` [Example 15, (5α,8α)-8-Hydroxy-8-(5-oxo-6-oxa-4-aza-spiro[2.4]hept-4-ylmethyl)-2-[4-(2,2,2-trifluoro-ethoxy)-phenyl]-2-aza-spiro[4.5]decan-1-one], the 50% inhibitory concentration (IC50) came out at 990 nM. With `CC1(C)CCC(=O)N1C[C@]1(O)CC[C@]2(CCN(c3ccc([C@@H](O)C(F)(F)F)cc3)C2=O)CC1` [Example 9, (5α,8α)-8-(2,2-Dimethyl-5-oxo-pyrrolidin-1-ylmethyl)-8-hydroxy-2-[4-((R)-2,2,2-trifluoro-1-hydroxy-ethyl)-phenyl]-2-aza-spiro[4.5]decan-1-one], the IC50 came to 14.6 nM. Regarding `CC(C)Oc1ccc(N2CC[C@]3(CC[C@@](O)(CN4CCNC4=O)CC3)C2=O)cn1` [Example 8, (5α,8α)-8-hydroxy-2-(6-isopropoxypyridin-3-yl)-8-((2-oxoimidazolidin-1-yl)methyl)-2-azaspiro[4.5]decan-1-one], the concentration for half-maximal inhibition (IC50) stood at 300 nM. Take `O=C1CCC2(CC2)N1C[C@]1(O)CC[C@]2(CCN(c3ccc(OCC(F)(F)F)cc3)C2=O)CC1` [Example 13, (5α,8α)-8-Hydroxy-8-(5-oxo-4-aza-spiro[2.4]hept-4-ylmethyl)-2-[4-(2,2,2-trifluoro-ethoxy)-phenyl]-2-aza-spiro[4.5]decan-1-one]: the half-maximal inhibitory concentration (IC50) was 7.5 nM. `CC(C)Oc1ccc(N2CC[C@]3(CC[C@@](O)(CN4C(=O)CCC4(C)C)CC3)C2=O)cc1` [Example 2, (5α,8α)-8-((2,2-dimethyl-5-oxopyrrolidin-1-yl)methyl)-8-hydroxy-2-(4-isopropoxyphenyl)-2-azaspiro[4.5]decan-1-one]: the IC50 turned out to be 12.5 nM. The figure for `CC(C)Oc1ccc(N2CC[C@]3(CC[C@@](O)(CN4C(=O)CCC45CC5)CC3)C2=O)cc1` [Example 4, (5α,8α)-8-Hydroxy-2-(4-isopropoxy-phenyl)-8-(5-oxo-4-aza-spiro[2.4]hept-4-ylmethyl)-2-aza-spiro[4.5]decan-1-one] is 11.4 nM. For `C[C@@H](Oc1ccc(N2CC[C@]3(CC[C@@](O)(CN4C(=O)CCC45CC5)CC3)C2=O)cc1)C(F)(F)F` [Example 11, (5α,8α)-8-hydroxy-8-((5-oxo-4-azaspiro[2.4]heptan-4-yl)methyl)-2-(4-((R)-1,1,1-trifluoropropan-2-yloxy)phenyl)-2-azaspiro[4.5]decan-1-one], the 50% inhibitory concentration (IC50) is 7.1 nM. In the case of `CC(C)Oc1ccc(N2CC[C@]3(CC[C@@](O)(CN4CC[C@@H](O)C4=O)CC3)C2=O)cc1` [Example 6, (5α,8α)-8-Hydroxy-8-(((R)-3-hydroxy-2-oxopyrrolidin-1-yl)methyl)-2-(4-isopropoxyphenyl)-2-azaspiro[4.5]decan-1-one], the IC50 turned out to be 60 nM. Consider `C[C@H](Oc1ccc(N2CC[C@]3(CC[C@@](O)(CN4C(=O)CCC45CC5)CC3)C2=O)cn1)C(F)(F)F` [Example 12, (5α,8α)-8-hydroxy-8-((5-oxo-4-azaspiro[2.4]heptan-4-yl)methyl)-2-(6-((S)-1,1,1-trifluoropropan-2-yloxy)pyridin-3-yl)-2-azaspiro[4.5]decan-1-one], for which the half-maximal inhibitory concentration (IC50) amounted to 9.7 nM.

In the case of `O=C1CCC2(CC2)N1C[C@]1(O)CC[C@]2(CCN(c3ccc([C@@H](O)C(F)(F)F)cc3)C2=O)CC1` [Example 17, (5α,8α)-8-Hydroxy-8-(5-oxo-4-aza-spiro[2.4]hept-4-ylmethyl)-2-[4-((R)-2,2,2-trifluoro-1-hydroxy-ethyl)-phenyl]-2-aza-spiro[4.5]decan-1-one], the IC50 worked out at 40 nM. Regarding `CC(C)Oc1ccc(N2CC[C@]3(CC[C@@](O)(CN4CCN(C)C4=O)CC3)C2=O)cn1` [Example 7, (5α,8α)-8-Hydroxy-2-(6-isopropoxy-pyridin-3-yl)-8-(3-methyl-2-oxo-imidazolidin-1-ylmethyl)-2-aza-spiro[4.5]decan-1-one], the 50% inhibitory concentration (IC50) stood at 138 nM. As for `CC1(C)CCC(=O)N1C[C@]1(O)CC[C@]2(CCN(c3ccc(C(F)(F)F)cc3)C2=O)CC1` [Example 1, (5α,8α)-8-((2,2-dimethyl-5-oxopyrrolidin-1-yl)methyl)-8-hydroxy-2-(4-(trifluoromethyl)phenyl)-2-azaspiro[4.5]decan-1-one], the concentration for half-maximal inhibition (IC50) is 14.9 nM. In the case of `CC(C)Oc1ccc(N2CC[C@]3(CC[C@@](O)(CN4CCOC4=O)CC3)C2=O)cc1` [Example 5, 3-(((5α,8α)-8-Hydroxy-2-(4-isopropoxyphenyl)-1-oxo-2-azaspiro[4.5]decan-8-yl)methyl)oxazolidin-2-one], the IC50 amounted to 5.9 nM. For `CC(C)Oc1ccc(N2CC[C@]3(CC[C@@](O)(CN4CCN(C)C4=O)CC3)C2=O)cc1` [Example 3, (5α,8α)-8-hydroxy-2-(4-isopropoxyphenyl)-8-((3-methyl-2-oxoimidazolidin-1-yl)methyl)-2-azaspiro[4.5]decan-1-one], the concentration for half-maximal inhibition (IC50) was found to be 23.9 nM. Take `O=C1OCCN1C[C@]1(O)CC[C@]2(CCN(c3ccc(OCC(F)(F)F)cc3)C2=O)CC1` [Example 16, (5α,8α)-8-Hydroxy-8-(2-oxo-oxazolidin-3-ylmethyl)-2-[4-(2,2,2-trifluoro-ethoxy)-phenyl]-2-aza-spiro[4.5]decan-1-one]: the 50% inhibitory concentration (IC50) worked out at 150 nM. The figure for `CN1CCN(C[C@]2(O)CC[C@]3(CCN(c4ccc([C@@H](O)C(F)(F)F)cc4)C3=O)CC2)C1=O` [Example 10, (5α,8α)-8-Hydroxy-8-(3-methyl-2-oxo-imidazolidin-1-ylmethyl)-2-[4-((R)-2,2,2-trifluoro-1-hydroxy-ethyl)-phenyl]-2-aza-spiro[4.5]decan-1-one] is 136 nM.

Broadly, the IC50 is the concentration that inhibits the measured activity by half.
